Reference: PubChem BioAssay (NCI)
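Here, GI50 denotes the concentration required for 50% inhibition of growth. TGI denotes the concentration required for complete inhibition of growth.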

Legend:
Experiment in all cases: DTP human tumour cell line panel, 384-well format
A498 renal = tested on: A498 renal
COLO 205 colon = tested on: COLO 205 colon
HCT-116 colon = tested on: HCT-116 colon
HT29 colon = tested on: HT29 colon
M14 melanoma = tested on: M14 melanoma
MCF7 breast = tested on: MCF7 breast
MDA-MB-435 melanoma = tested on: MDA-MB-435 melanoma
MDA-MB-468 breast = tested on: MDA-MB-468 breast
NCI-H522 lung = tested on: NCI-H522 lung
OVCAR-3 ovarian = tested on: OVCAR-3 ovarian
SF-295 CNS = tested on: SF-295 CNS
SR leukemia = tested on: SR leukemia
UACC-62 melanoma = tested on: UACC-62 melanoma

Compound	GI50 (A498 renal) [µM]	TGI (A498 renal) [µM]	GI50 (COLO 205 colon) [µM]	TGI (COLO 205 colon) [µM]	GI50 (HCT-116 colon) [µM]	TGI (HCT-116 colon) [µM]	GI50 (HT29 colon) [µM]	TGI (HT29 colon) [µM]	GI50 (M14 melanoma) [µM]	TGI (M14 melanoma) [µM]	GI50 (MCF7 breast) [µM]	TGI (MCF7 breast) [µM]	GI50 (MDA-MB-435 melanoma) [µM]	TGI (MDA-MB-435 melanoma) [µM]	GI50 (MDA-MB-468 breast) [µM]	TGI (MDA-MB-468 breast) [µM]	GI50 (NCI-H522 lung) [µM]	TGI (NCI-H522 lung) [µM]	GI50 (OVCAR-3 ovarian) [µM]	TGI (OVCAR-3 ovarian) [µM]	further results
Cn1cc(-c2ccc(-c3cncc(Cl)c3N3CCC4(CCNC4=O)CC3)cc2)cn1	4.45	33.1	16.3	> 60	13.8	47.3	9.55	> 93.3	39.4	> 100	15.9	52.8	30.1	> 91.6	3.15	18.4	13.1	48.2	17.3	51.3	GI50 (SF-295 CNS): 25.2 µM; TGI (SF-295 CNS): > 87.2 µM; TGI (SR leukemia): 0.485 µM; GI50 (UACC-62 melanoma): 20.1 µM; TGI (UACC-62 melanoma): 58.1 µM
COc1ccc2c(Oc3ccc(NC(=O)c4c(C)n(CC(C)(C)O)n(-c5ccccc5)c4=O)nc3)ccnc2c1	4.43	> 100	42.2	> 100	10.5	30.2	39.9	> 100	6.34	70.2	46.4	> 100	12.3	53.7	22.9	> 100	14.4	54.1	13	31.6	GI50 (SF-295 CNS): 13.9 µM; TGI (SF-295 CNS): > 100 µM; GI50 (SR leukemia): 6.58 µM; TGI (SR leukemia): 19 µM; GI50 (UACC-62 melanoma): 4.99 µM; TGI (UACC-62 melanoma): 24 µM
